Values quoted from earlier work, collected in US20240082212A1, “USE OF MDMA FOR TREATMENT OF STRESS-RELATED DISORDERS” (priority 2022, published 2024).

What was measured:
[1] = tested on: rats; conditions: 4 hourly SC injections at 10 mg/kg/injection (Biezonski et al., 2013); cited from earlier work
[2] = tested on: PTSD participants; conditions: cited from earlier work

CNC(C)Cc1ccc2c(c1)OCO2 (racemic) [Racemic MDMA, 3,4-methylenedioxymethamphetamine]
body temperature [1]: significant increase in body temperature
vital signs (systolic and diastolic blood pressure and heart rate) ([2]; MDMA group, Phase 3 clinical trial (Mitchell et al., 2021)): transient increase in vital signs
efficacy for PTSD ([2]; Phase 3 clinical trial (Mitchell et al., 2021)): efficacy
transient increase in body temperature to ([2]; two participants in the MDMA group): 38.1 °C
